Results published in US4395400A, “Nonapeptide, a process for its preparation, an agent containing it and its use” (Hoechst Aktiengesellschaft, priority 1980, dated 1983).

Columns and labels:
[1] = system: gonadoliberin biological action; conditions: D-aminoacid in position 6 with tert.-butyl type protective group; cited from earlier work
[2] = solubility in aqueous buffer solutions; type: physicochemical
From the text: This makes the compound suitable for intranasal administration, for which, as shown by experience, solubility can be the limiting factor.

[3] = absorption from the gastro-intestinal tract; type: in vivo; conditions: humans
Protocol: The preferred method of administration in humans is intranasal administration, since absorption of the compound from the gastro-intestinal tract is only slight and parenteral administration is inappropriate for the patient. About 0.1 ml of a buffer solution, in which the necessary quantity of the active compound is dissolved, is sprayed into the nose via a spray jet, by means of a dosing atomizer.

Compound: CC(C)(C)OC[C@@H](N)C(=O)O [O-tert.-butyl-D-serine]
- biological action of position-6 substituted gonadoliberin derivative [1]: strongest biological action

Compound: CCNC(=O)[C@@H]1CCCN1C(=O)[C@H](CCCNC(=N)N)NC(=O)[C@H](CC(C)C)NC(=O)[C@@H](CCCC(=O)OC(C)(C)C)NC(=O)[C@H](Cc1ccc(O)cc1)NC(=O)[C@H](CO)NC(=O)[C@H](Cc1c[nH]c2ccccc12)NC(=O)[C@H](Cc1c[nH]cn1)NC(=O)[C@@H]1CCC(=O)N1 [nonapeptide]
- solubility in aqueous buffer solutions ([2]; aqueous buffer solutions): good solubility
- solubility compared with other gonadoliberin analogs ([2]; versus analogs of comparable effectiveness, particularly the D-Trp^6 or D-His(Bzl)^6 analogs): appreciably greater
- absorption from the gastro-intestinal tract [3]: only slight
